From the OligoGym collection
Values joined by “and” are separate entries in the source; they are usually repeats but may differ in a detail not shown here. Equal values may be shown once. HELM strings list units from the 5' end as sugar, base in round brackets, then linkage (d deoxyribose, r ribose, m 2'-O-methyl, p phosphodiester). Methylation of C is not given here. [moe] = 2'-O-(2-methoxyethyl) (MOE); [cEt] = constrained ethyl (cEt); [sp] = phosphorothioate linkage

Target: HBV
Settings: ASO

Substance	target mRNA inhibition (HepG2, 0.07 µM)	further results
RNA1{[moe](A)[sp].[moe](G)[sp].[moe](A)[sp].[moe](A)[sp].[moe](G)[sp].[moe](T)[sp].d(C)[sp].d(C)[sp].d(A)[sp].d(C)[sp].d(C)[sp].d(A)[sp].d(C)[sp].d(G)[sp].d(A)[sp].[moe](G)[sp].[moe](T)}$$$$V2.0	39% and 30%	
RNA1{[moe](G)[sp].[moe](T)[sp].[moe](G)[sp].[moe](A)[sp].[moe](A)[sp].d(G)[sp].d(C)[sp].d(G)[sp].d(A)[sp].d(A)[sp].d(G)[sp].d(T)[sp].d(G)[sp].d(C)[sp].[moe](A)[sp].[moe](C)}$$$$V2.0	70% and 58%	
RNA1{[moe](A)[sp].[cEt](C)[sp].[cEt](G)[sp].d(G)[sp].d(G)[sp].d(C)[sp].d(A)[sp].d(A)[sp].d(C)[sp].d(A)[sp].d(T)[sp].d(A)[sp].d(C)[sp].[cEt](C)[sp].[cEt](T)[sp].[moe](T)}$$$$V2.0	63% and 88%	target mRNA inhibition (HepG2, 0.0092593 µM): 38%; target mRNA inhibition (HepG2, 0.0277778 µM): 73%; target mRNA inhibition (HepG2, 0.0833333 µM): 87%; target mRNA inhibition (HepG2, 0.25 µM): 92%
RNA1{[moe](C)[sp].[moe](A)[sp].d(G)[sp].d(A)[sp].d(G)[sp].d(G)[sp].d(T)[sp].d(G)[sp].d(A)[sp].d(A)[sp].d(G)[sp].[moe](C)[sp].[moe](G)[sp].[moe](A)[sp].[moe](A)[sp].[moe](G)}$$$$V2.0	35% and 36%	
RNA1{[moe](G)[sp].[cEt](A)[sp].[cEt](G)[sp].d(A)[sp].d(G)[sp].d(A)[sp].d(A)[sp].d(G)[sp].d(T)[sp].d(C)[sp].d(C)[sp].d(A)[sp].d(C)[sp].[cEt](C)[sp].[cEt](A)[sp].[moe](C)}$$$$V2.0	65% and 63%	
RNA1{[moe](G)[sp].[cEt](A)[sp].d(T)[sp].d(G)[sp].d(A)[sp].d(G)[sp].d(G)[sp].d(C)[sp].d(A)[sp].d(T)[sp].d(A)[sp].d(G)[sp].[cEt](C)[sp].[moe](A)[sp].[cEt](G)[sp].[moe](C)}$$$$V2.0	70% and 66%	
RNA1{[moe](T)[sp].[cEt](C)[sp].d(C)[sp].d(A)[sp].d(C)[sp].d(C)[sp].d(A)[sp].d(C)[sp].d(G)[sp].d(A)[sp].d(G)[sp].d(T)[sp].[cEt](C)[sp].[moe](T)[sp].[cEt](A)[sp].[moe](G)}$$$$V2.0	71% and 53%	
RNA1{[moe](A)[sp].[moe](A)[sp].[moe](G)[sp].[cEt](C)[sp].[cEt](G)[sp].d(A)[sp].d(A)[sp].d(G)[sp].d(T)[sp].d(G)[sp].d(C)[sp].d(A)[sp].[cEt](C)[sp].[cEt](A)[sp].[moe](C)[sp].[moe](G)[sp].[moe](G)}$$$$V2.0		target mRNA inhibition (HepG2, 0.009375 µM): 23%; target mRNA inhibition (HepG2, 0.01875 µM): 19%; target mRNA inhibition (HepG2, 0.0375 µM): 39%; target mRNA inhibition (HepG2, 0.075 µM): 49%; target mRNA inhibition (HepG2, 0.15 µM): 66%; target mRNA inhibition (HepG2, 0.3 µM): 75%
RNA1{[moe](G)[sp].[moe](G)[sp].[moe](T)[sp].d(G)[sp].d(A)[sp].d(A)[sp].d(G)[sp].d(C)[sp].d(G)[sp].d(A)[sp].d(A)[sp].d(G)[sp].d(T)[sp].[cEt](G)[sp].[cEt](C)[sp].[cEt](A)}$$$$V2.0	72% and 83%	target mRNA inhibition (HepG2, 0.0092593 µM): 15%; target mRNA inhibition (HepG2, 0.0277778 µM): 42%; target mRNA inhibition (HepG2, 0.0833333 µM): 67%; target mRNA inhibition (HepG2, 0.25 µM): 88%
RNA1{[moe](G)[sp].[cEt](C)[sp].d(A)[sp].d(T)[sp].d(A)[sp].d(G)[sp].d(C)[sp].d(A)[sp].d(G)[sp].d(C)[sp].d(A)[sp].d(G)[sp].[cEt](G)[sp].[moe](A)[sp].[cEt](T)[sp].[moe](G)}$$$$V2.0	76% and 78%	
RNA1{[moe](C)[sp].[moe](G)[sp].d(A)[sp].d(A)[sp].d(C)[sp].d(C)[sp].d(A)[sp].d(C)[sp].d(T)[sp].d(G)[sp].d(A)[sp].[moe](A)[sp].[moe](C)[sp].[moe](A)[sp].[moe](A)[sp].[moe](A)}$$$$V2.0	37% and 23%	
RNA1{[moe](A)[sp].[moe](C)[sp].[moe](C)[sp].d(A)[sp].d(A)[sp].d(T)[sp].d(T)[sp].d(T)[sp].d(A)[sp].d(T)[sp].d(G)[sp].d(C)[sp].[moe](C)[sp].[moe](T)[sp].[moe](A)[sp].[moe](C)[sp].[moe](A)}$$$$V2.0	31% and 33%	
RNA1{[moe](G)[sp].[moe](G)[sp].[moe](C)[sp].d(A)[sp].d(T)[sp].d(A)[sp].d(G)[sp].d(C)[sp].d(A)[sp].d(G)[sp].d(C)[sp].d(A)[sp].d(G)[sp].[cEt](G)[sp].[cEt](A)[sp].[cEt](T)}$$$$V2.0	56% and 44%	
RNA1{[moe](T)[sp].[moe](G)[sp].[moe](A)[sp].[moe](A)[sp].[moe](G)[sp].d(C)[sp].d(G)[sp].d(A)[sp].d(A)[sp].d(G)[sp].d(T)[sp].d(G)[sp].d(C)[sp].d(A)[sp].[moe](C)[sp].[moe](A)}$$$$V2.0	59% and 47%	
RNA1{[moe](C)[sp].[moe](A)[sp].[moe](G)[sp].[moe](A)[sp].[moe](G)[sp].[moe](G)[sp].d(T)[sp].d(G)[sp].d(A)[sp].d(A)[sp].d(G)[sp].d(C)[sp].d(G)[sp].d(A)[sp].d(A)[sp].[moe](G)[sp].[moe](T)}$$$$V2.0	81% and 58%	
RNA1{[moe](C)[sp].[cEt](C)[sp].d(A)[sp].d(C)[sp].d(T)[sp].d(G)[sp].d(A)[sp].d(A)[sp].d(C)[sp].d(A)[sp].d(A)[sp].d(A)[sp].[cEt](T)[sp].[moe](G)[sp].[cEt](G)[sp].[moe](C)}$$$$V2.0	76% and 78%	
RNA1{[moe](A)[sp].[moe](T)[sp].[moe](G)[sp].[moe](A)[sp].[moe](G)[sp].d(G)[sp].d(C)[sp].d(A)[sp].d(T)[sp].d(A)[sp].d(G)[sp].d(C)[sp].d(A)[sp].d(G)[sp].[moe](C)[sp].[moe](A)[sp].[moe](G)}$$$$V2.0	50% and 44%	
RNA1{[moe](G)[sp].[moe](C)[sp].[moe](A)[sp].[moe](G)[sp].d(T)[sp].d(A)[sp].d(T)[sp].d(G)[sp].d(G)[sp].d(A)[sp].d(T)[sp].d(C)[sp].d(G)[sp].[moe](G)[sp].[moe](C)[sp].[moe](A)}$$$$V2.0	69% and 61%	
RNA1{[moe](G)[sp].[moe](A)[sp].d(A)[sp].d(G)[sp].d(C)[sp].d(G)[sp].d(A)[sp].d(A)[sp].d(G)[sp].d(T)[sp].d(G)[sp].[moe](C)[sp].[moe](A)[sp].[moe](C)[sp].[moe](A)[sp].[moe](C)}$$$$V2.0	71% and 64%	target mRNA inhibition (HepG2, 0.0092593 µM): 9%; target mRNA inhibition (HepG2, 0.0277778 µM): 34%; target mRNA inhibition (HepG2, 0.0833333 µM): 53%; target mRNA inhibition (HepG2, 0.25 µM): 81%
RNA1{[moe](C)[sp].[moe](G)[sp].[moe](T)[sp].[moe](G)[sp].[moe](C)[sp].[moe](A)[sp].d(G)[sp].d(A)[sp].d(G)[sp].d(G)[sp].d(T)[sp].d(G)[sp].d(A)[sp].d(A)[sp].d(G)[sp].[moe](C)[sp].[moe](G)}$$$$V2.0	81% and 64%	
RNA1{[moe](A)[sp].[moe](T)[sp].d(T)[sp].d(T)[sp].d(A)[sp].d(T)[sp].d(G)[sp].d(C)[sp].d(C)[sp].d(T)[sp].d(A)[sp].[moe](C)[sp].[moe](A)[sp].[moe](G)[sp].[moe](C)[sp].[moe](C)[sp].[moe](T)}$$$$V2.0	71% and 65%	target mRNA inhibition (HepG2, 0.0092593 µM): 0%; target mRNA inhibition (HepG2, 0.0277778 µM): 21%; target mRNA inhibition (HepG2, 0.0833333 µM): 22%; target mRNA inhibition (HepG2, 0.25 µM): 53%
RNA1{[moe](A)[sp].[moe](A)[sp].d(G)[sp].d(C)[sp].d(G)[sp].d(A)[sp].d(A)[sp].d(G)[sp].d(T)[sp].d(G)[sp].d(C)[sp].[moe](A)[sp].[moe](C)[sp].[moe](A)[sp].[moe](C)[sp].[moe](G)}$$$$V2.0	70% and 68%	
RNA1{[moe](A)[sp].[moe](A)[sp].[moe](T)[sp].[moe](T)[sp].[moe](T)[sp].[moe](A)[sp].d(T)[sp].d(G)[sp].d(C)[sp].d(C)[sp].d(T)[sp].d(A)[sp].d(C)[sp].d(A)[sp].d(G)[sp].[moe](C)[sp].[moe](C)}$$$$V2.0	53% and 48%	
RNA1{[moe](G)[sp].[moe](A)[sp].[moe](A)[sp].[moe](C)[sp].d(T)[sp].d(G)[sp].d(G)[sp].d(A)[sp].d(G)[sp].d(C)[sp].d(C)[sp].d(A)[sp].d(C)[sp].[moe](C)[sp].[moe](A)[sp].[moe](G)}$$$$V2.0	46% and 53%	
RNA1{[moe](G)[sp].[moe](T)[sp].[moe](G)[sp].d(A)[sp].d(A)[sp].d(G)[sp].d(C)[sp].d(G)[sp].d(A)[sp].d(A)[sp].d(G)[sp].d(T)[sp].[moe](G)[sp].[moe](C)[sp].[moe](A)[sp].[moe](C)}$$$$V2.0	70% and 68%	
RNA1{[moe](G)[sp].[moe](A)[sp].[moe](A)[sp].[moe](G)[sp].[moe](C)[sp].d(G)[sp].d(A)[sp].d(A)[sp].d(G)[sp].d(T)[sp].d(G)[sp].d(C)[sp].d(A)[sp].d(C)[sp].[moe](A)[sp].[moe](C)}$$$$V2.0	70% and 67%	
RNA1{[moe](G)[sp].[moe](T)[sp].d(G)[sp].d(A)[sp].d(A)[sp].d(G)[sp].d(C)[sp].d(G)[sp].d(A)[sp].d(A)[sp].d(G)[sp].[moe](T)[sp].[moe](G)[sp].[moe](C)[sp].[moe](A)[sp].[moe](C)}$$$$V2.0	68% and 60%	
RNA1{[moe](G)[sp].[cEt](G)[sp].[cEt](C)[sp].d(A)[sp].d(C)[sp].d(A)[sp].d(G)[sp].d(C)[sp].d(T)[sp].d(T)[sp].d(G)[sp].d(G)[sp].d(A)[sp].[cEt](G)[sp].[cEt](G)[sp].[moe](C)}$$$$V2.0	36% and 39%	
RNA1{[moe](T)[sp].[moe](C)[sp].d(C)[sp].d(G)[sp].d(C)[sp].d(A)[sp].d(G)[sp].d(T)[sp].d(A)[sp].d(T)[sp].d(G)[sp].[moe](G)[sp].[moe](A)[sp].[moe](T)[sp].[moe](C)[sp].[moe](G)}$$$$V2.0	70% and 62%	
RNA1{[moe](A)[sp].[moe](A)[sp].[moe](G)[sp].d(T)[sp].d(C)[sp].d(C)[sp].d(A)[sp].d(C)[sp].d(C)[sp].d(A)[sp].d(C)[sp].d(G)[sp].d(A)[sp].[cEt](G)[sp].[cEt](T)[sp].[cEt](C)}$$$$V2.0	19% and 25%	
